Experimental findings from the Kinase Knowledgebase extract (Sharma et al. 2016) are described below.

In general, IC50 refers to the concentration at which inhibition is half-maximal. Higher therefore signals a need for much substance.

Sequence of MAPK14 (Q16539 whole entry, looked up): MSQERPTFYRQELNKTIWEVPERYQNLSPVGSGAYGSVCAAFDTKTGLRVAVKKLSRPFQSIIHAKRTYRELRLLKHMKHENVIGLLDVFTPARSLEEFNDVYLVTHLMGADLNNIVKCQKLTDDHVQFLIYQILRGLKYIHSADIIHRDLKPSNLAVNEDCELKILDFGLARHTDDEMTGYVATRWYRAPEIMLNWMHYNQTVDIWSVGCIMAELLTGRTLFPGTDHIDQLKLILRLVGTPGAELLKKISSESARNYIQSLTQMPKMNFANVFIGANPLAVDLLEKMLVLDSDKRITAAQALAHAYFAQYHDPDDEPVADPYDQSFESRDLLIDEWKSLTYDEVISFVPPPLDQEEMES

One assay concerns the target EGFR (human) (UniProt P00533).
Assay: not given
Settings: not given
The compound `COc1cc2ncnc(Nc3ccc(F)c(Cl)c3)c2cc1O[C@H]1CC[C@H](NS(=O)(=O)N2CCOCC2)CC1` yielded an IC50 of 0.4 nM.

Compound `CC.COc1cc2ncnc(Nc3ccc(F)c(Cl)c3)c2cc1OC1CCN(S(=O)(=O)N2CCOCC2)CC1` registered a concentration for half-maximal inhibition (IC50) of 0.1 nM.

The target of another assay is PIK3CB (Human) (UniProt P42338). The experiment in a line: Assessment of PIK3CB Kinase Activity.
Sequence of PIK3CB (Human) (P42338 whole entry, looked up): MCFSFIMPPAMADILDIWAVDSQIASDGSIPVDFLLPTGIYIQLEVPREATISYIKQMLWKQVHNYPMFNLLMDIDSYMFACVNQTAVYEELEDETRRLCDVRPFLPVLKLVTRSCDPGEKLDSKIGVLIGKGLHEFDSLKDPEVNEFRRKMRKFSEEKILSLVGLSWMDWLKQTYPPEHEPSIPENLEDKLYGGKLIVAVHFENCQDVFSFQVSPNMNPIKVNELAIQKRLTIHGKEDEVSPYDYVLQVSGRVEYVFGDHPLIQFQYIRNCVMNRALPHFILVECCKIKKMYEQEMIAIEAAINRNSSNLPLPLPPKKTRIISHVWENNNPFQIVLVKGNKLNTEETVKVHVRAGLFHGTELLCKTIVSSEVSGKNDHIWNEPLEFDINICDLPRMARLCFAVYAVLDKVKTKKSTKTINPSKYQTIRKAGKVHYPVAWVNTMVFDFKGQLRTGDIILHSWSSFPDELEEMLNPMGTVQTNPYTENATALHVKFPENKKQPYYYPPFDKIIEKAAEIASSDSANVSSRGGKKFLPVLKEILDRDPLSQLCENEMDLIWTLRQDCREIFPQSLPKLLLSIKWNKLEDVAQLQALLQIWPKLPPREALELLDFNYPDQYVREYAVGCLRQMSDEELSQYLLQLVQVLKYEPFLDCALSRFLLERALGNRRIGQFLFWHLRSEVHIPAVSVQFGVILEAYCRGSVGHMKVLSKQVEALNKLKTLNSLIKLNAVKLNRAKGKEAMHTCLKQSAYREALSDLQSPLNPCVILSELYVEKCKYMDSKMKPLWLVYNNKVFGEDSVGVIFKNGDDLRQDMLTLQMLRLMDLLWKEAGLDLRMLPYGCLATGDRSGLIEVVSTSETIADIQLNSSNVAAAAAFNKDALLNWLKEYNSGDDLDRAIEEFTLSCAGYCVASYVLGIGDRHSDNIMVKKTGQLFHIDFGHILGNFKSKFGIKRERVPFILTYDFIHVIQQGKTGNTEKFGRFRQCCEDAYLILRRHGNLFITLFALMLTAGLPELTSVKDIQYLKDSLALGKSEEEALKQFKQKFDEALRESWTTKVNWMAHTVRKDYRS
Settings: not given
On to `Nc1ncc(-c2cnc3ccc(-c4ccc(C(=O)N5CCN(Cc6ccccn6)CC5)cc4)nn23)cc1C(F)(F)F`, for which the IC50 was found to be 979 nM.

In turn, `CC(Nc1ccc(F)cc1)c1cc(C(=O)N(C)C)cc2c(=O)cc(N3CCO[C@@H](C)C3)oc12` (stereo partly specified) displayed an IC50 of 64 nM.

In turn, `Cc1c(Cn2ccn3c(=O)cc(C4C=COCC4)nc23)cccc1C(F)(F)F` (stereo unspecified) registered an IC50 of 13 nM.

`COCCn1c(Cc2nc(N3CCOCC3)cc(=O)[nH]2)nc2ccccc21` registered an IC50 of 205 nM.

For the compound `CN1CC2CN(c3cnc4ncc(-c5ccc6oc(N)nc6c5)cc4n3)CC2C1` (stereo unspecified), the IC50 was 100 to 1000 nM.

The target of a further assay is PIK3CA (human) (UniProt P42336). The experiment in a line: Assessment of PIK3CA Kinase Activity.
Settings: not given
As for `Nc1ncc(-c2cnc3ccc(-c4ccc(C(=O)N5CCN(Cc6ccccn6)CC5)cc4)nn23)cc1C(F)(F)F`, the IC50 worked out at 16 nM.

In turn, `CN1CC2CN(c3cnc4ncc(-c5ccc6oc(N)nc6c5)cc4n3)CC2C1` (stereo unspecified) came in with an IC50 of under 100 nM.

The target in another assay is PIK3CB;PIK3CG;PIK3CD;PIK3CA (human) (UniProt P48736). The experiment in a line: Inhibition of PIK3CA/PIK3CB/PIK3CD/PIK3CG Kinase Activity.
Settings: not given
`Fc1cnc(Cl)nc1NCc1cc2cccc(Cl)c2nc1-c1ccccc1Cl` had an IC50 of 3230 nM.

`Nc1ncc(F)c(NCc2cc3cccc(Cl)c3nc2-c2ccccc2Cl)n1`: the IC50 amounted to 913 nM. Against the preceding compound, the IC50 is about 3.5-fold lower.

Consider `Cc1cccc2cc(CNc3ccnc(C(N)=O)c3)c(-c3ccccc3Cl)nc12`, for which the IC50 stood at 15300 nM.

`COc1c(Cl)ncnc1NCc1cc2cccc(Cl)c2nc1-c1ccccc1` came in with an IC50 of 724 nM. Compared with the last compound, the IC50 is about 21-fold lower.

The compound `C[C@H](Nc1nc(N)ncc1Cl)c1cc2cccc(Cl)c2nc1-c1ccccn1` yielded an IC50 of 106 nM.

For a further assay, the target named is PIK3CD (Human) (UniProt O00329). Put plainly: Inhibition of PIK3CD Kinase Activity.
Sequence of PIK3CD (Human) (O00329 whole entry, looked up): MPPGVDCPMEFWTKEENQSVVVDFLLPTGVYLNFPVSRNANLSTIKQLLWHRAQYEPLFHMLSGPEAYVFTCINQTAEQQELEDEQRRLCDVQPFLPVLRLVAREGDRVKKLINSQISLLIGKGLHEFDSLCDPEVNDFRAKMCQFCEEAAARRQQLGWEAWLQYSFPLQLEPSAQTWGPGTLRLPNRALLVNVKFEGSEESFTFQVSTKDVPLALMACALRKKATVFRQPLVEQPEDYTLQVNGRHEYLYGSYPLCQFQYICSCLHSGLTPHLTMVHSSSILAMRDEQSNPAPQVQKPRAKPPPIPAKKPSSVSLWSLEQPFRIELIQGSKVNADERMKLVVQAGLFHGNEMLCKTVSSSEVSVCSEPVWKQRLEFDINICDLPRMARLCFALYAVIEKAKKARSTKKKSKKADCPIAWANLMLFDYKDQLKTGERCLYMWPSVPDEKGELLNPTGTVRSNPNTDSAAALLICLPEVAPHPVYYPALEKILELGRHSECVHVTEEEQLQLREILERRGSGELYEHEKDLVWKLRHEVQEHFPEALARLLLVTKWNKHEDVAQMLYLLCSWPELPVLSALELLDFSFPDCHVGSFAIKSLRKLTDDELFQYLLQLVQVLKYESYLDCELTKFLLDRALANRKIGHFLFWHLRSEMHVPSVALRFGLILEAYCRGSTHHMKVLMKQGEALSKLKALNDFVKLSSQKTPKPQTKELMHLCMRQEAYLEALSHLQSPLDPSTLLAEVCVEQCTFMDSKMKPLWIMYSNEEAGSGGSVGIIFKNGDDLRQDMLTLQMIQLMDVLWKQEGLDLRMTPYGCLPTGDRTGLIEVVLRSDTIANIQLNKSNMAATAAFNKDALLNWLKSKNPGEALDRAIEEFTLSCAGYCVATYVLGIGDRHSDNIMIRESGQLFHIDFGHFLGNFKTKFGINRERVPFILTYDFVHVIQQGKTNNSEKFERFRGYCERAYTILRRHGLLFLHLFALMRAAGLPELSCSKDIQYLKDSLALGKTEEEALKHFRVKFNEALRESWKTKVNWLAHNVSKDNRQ
Settings: not given
`C[C@H](Nc1nc(N)ncc1Cl)c1cc2cccc(Cl)c2nc1-c1ccccn1` gave an IC50 of 105 nM. In other words, the sub-micromolar range.

For a further assay, the target named is EGFR (human) (UniProt P00533).
Sequence of EGFR (human) (P00533 whole entry, looked up): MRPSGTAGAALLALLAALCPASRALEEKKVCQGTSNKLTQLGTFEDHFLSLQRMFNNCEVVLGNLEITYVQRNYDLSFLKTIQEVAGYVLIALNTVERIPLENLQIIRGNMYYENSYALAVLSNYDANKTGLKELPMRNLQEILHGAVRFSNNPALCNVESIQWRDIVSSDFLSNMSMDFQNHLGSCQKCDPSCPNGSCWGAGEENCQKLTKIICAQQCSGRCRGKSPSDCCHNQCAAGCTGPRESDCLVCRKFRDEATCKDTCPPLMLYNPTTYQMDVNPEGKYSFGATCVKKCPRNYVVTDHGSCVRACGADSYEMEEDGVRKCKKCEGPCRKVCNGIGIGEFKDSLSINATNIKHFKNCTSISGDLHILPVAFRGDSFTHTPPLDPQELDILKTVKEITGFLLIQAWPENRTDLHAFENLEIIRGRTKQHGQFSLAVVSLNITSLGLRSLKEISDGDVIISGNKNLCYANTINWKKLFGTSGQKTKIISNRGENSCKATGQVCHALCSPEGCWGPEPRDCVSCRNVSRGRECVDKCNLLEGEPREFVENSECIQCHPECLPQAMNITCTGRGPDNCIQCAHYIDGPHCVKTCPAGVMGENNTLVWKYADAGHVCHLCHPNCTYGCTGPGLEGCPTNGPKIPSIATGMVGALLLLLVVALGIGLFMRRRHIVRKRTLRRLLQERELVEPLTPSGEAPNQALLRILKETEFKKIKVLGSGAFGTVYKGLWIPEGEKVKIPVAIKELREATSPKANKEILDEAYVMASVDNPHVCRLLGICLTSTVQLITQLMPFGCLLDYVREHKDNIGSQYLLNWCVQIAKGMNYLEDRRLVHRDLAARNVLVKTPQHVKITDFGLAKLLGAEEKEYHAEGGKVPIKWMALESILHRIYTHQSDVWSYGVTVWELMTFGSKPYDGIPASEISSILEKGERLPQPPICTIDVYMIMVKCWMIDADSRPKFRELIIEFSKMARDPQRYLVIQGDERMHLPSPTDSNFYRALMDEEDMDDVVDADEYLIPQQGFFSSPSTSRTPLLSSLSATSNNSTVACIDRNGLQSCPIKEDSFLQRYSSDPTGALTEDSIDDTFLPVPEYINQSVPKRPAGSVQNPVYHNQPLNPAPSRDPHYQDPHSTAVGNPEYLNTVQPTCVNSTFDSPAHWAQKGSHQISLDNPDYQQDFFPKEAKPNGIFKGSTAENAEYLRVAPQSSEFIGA
Assay: not given
The following applies: a431.
Compound `CC(C)c1ccc(Nc2nc(NC(=O)C(C)(C)C)nc3[nH]c4cccc(Cl)c4c23)cc1` had an IC50 of over 250000 nM.

`CC(C)(C)C(=O)Nc1nc(Nc2ccc(Cl)cc2)c2c(n1)[nH]c1cccc(Cl)c12`: the IC50 amounted to 55000 nM.

On to `COc1cccc(Nc2nc(N)nc3[nH]c4cccc(Cl)c4c23)c1`, for which the IC50 was 167000 nM. Against the preceding compound, the IC50 is about 3-fold higher.

`Nc1nc(Nc2ccc(Cl)cc2)c2c(n1)[nH]c1cccc(Cl)c12` had an IC50 of 44100 nM.

The compound `CC(C)(C)C(=O)Nc1nc(Nc2cccc(F)c2)c2c(n1)[nH]c1cccc(Cl)c12` returned an IC50 of over 250000 nM.

Another assay deals with PIK3CD (Human) (UniProt O00329). The experiment in a line: Assessment of PIK3CD Kinase Activity.
Settings: not given
Consider `Nc1ncc(-c2cnc3ccc(-c4ccc(C(=O)N5CCN(Cc6ccccn6)CC5)cc4)nn23)cc1C(F)(F)F`, for which the IC50 amounted to 93 nM.

Consider `Cc1c(Cn2ccn3c(=O)cc(C4C=COCC4)nc23)cccc1C(F)(F)F` (stereo unspecified), for which the IC50 amounted to 40 nM.

`COCCn1c(Cc2nc(N3CCOCC3)cc(=O)[nH]2)nc2ccccc21` came in with an IC50 of 270 nM.

Turning to `CN1CC2CN(c3cnc4ncc(-c5ccc6oc(N)nc6c5)cc4n3)CC2C1` (stereo unspecified), the IC50 was in the range of 100 to 1000 nM.

Another assay deals with EGFR (Human), P00533 [T790M/L858R].
Sequence of EGFR (Human), P00533 [T790M/L858R] (P00533 whole entry T790M/L858R, looked up): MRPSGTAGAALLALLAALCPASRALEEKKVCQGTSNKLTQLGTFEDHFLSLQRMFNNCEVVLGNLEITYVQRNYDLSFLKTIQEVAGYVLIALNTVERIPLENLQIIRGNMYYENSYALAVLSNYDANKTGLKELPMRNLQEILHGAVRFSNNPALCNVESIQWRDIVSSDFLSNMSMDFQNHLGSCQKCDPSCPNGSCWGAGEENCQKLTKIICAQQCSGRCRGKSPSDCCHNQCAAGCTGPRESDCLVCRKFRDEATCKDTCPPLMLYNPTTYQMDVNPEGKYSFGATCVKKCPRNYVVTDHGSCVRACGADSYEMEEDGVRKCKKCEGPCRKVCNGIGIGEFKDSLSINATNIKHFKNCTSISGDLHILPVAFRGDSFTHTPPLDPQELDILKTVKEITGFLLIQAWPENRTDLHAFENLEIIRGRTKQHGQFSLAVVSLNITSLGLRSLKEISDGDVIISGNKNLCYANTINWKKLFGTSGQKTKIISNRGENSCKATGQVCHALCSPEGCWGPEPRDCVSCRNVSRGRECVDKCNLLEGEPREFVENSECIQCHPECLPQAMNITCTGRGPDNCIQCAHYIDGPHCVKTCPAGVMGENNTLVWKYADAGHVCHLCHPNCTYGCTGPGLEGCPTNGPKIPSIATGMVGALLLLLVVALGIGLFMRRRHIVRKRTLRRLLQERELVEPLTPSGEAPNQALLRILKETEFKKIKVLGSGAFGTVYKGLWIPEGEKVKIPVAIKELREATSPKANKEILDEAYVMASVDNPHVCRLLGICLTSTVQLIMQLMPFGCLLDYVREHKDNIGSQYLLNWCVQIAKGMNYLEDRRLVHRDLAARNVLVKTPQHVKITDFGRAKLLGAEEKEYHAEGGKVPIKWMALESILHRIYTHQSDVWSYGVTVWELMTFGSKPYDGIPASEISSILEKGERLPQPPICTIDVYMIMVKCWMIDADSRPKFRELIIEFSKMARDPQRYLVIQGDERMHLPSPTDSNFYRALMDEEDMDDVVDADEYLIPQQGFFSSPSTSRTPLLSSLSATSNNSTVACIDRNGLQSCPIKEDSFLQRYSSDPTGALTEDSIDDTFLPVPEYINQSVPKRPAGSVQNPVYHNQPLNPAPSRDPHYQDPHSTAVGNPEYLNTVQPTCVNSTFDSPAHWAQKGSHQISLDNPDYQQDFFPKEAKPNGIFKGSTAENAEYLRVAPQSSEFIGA
Assay: not given
Settings: not given
`C=CC(=O)N[C@@H]1CCCC[C@H](Nc2nc(Nc3cnn(C)c3)ncc2Cl)C1`: the IC50 fell in the range of 10 to 100 nM.

Turning to `C=CC(=O)Nc1cccc(Nc2nc(NCc3cnn(C)c3)ncc2Cl)c1`, the IC50 lay within 10 to 100 nM.

With `C=CC(=O)Nc1cccc(Nc2nc(Nc3cn(C)nc3C)ncc2Cl)n1`, the IC50 lay within 10 to 100 nM.

`C=CC(=O)N[C@H]1CCC[C@@H](Nc2nc(Nc3cnn(C)c3)ncc2Cl)C1` showed an IC50 of 10 to 100 nM.

With `C=CC(=O)Nc1ccc(F)c(Nc2nc(Nc3cn(C)nc3C)ncc2Cl)c1`, the IC50 was under 10 nM.

The next assay deals with EGFR (murine) (UniProt P00533).
Assay: not given
The following applies: f/l herc cells.
`CCOC(=O)CN(C)CCOc1cc2c(Nc3cccc(Br)c3)ncnc2cc1OC` showed an IC50 of 100 nM.

`CCOC(=O)CN1CCN(CCCOc2cc3c(Nc4cccc(Br)c4)ncnc3cc2OC)C(O)C1` (stereo unspecified) registered an IC50 of 33 nM. This IC50 lies about 3-fold lower than the previous one.

The target in the next assay is EGFR (human) (UniProt P00533).
Assay: not given
Settings: not given
The source holds these as a separate data set.
Compound `Cc1ccnc(NS(=O)(=O)c2ccc(Nc3nc(C)c4c(=O)[nH]c(NCc5ccccc5)nc4n3)cc2)n1` returned an IC50 of 6600 nM.

As for `Cc1ccnc(NS(=O)(=O)c2ccc(Nc3nc(C)c4c(=O)[nH]c(Nc5ccc(S(=O)(=O)O)cc5)nc4n3)cc2)n1`, the IC50 turned out to be 8100 nM.

Compound `Cc1ccnc(NS(=O)(=O)c2ccc(Nc3nc(C)c4c(=O)[nH]c(SCc5ccccc5)nc4n3)cc2)n1` registered an IC50 of 7800 nM.

`Cc1ccnc(NS(=O)(=O)c2ccc(Nc3nc(-c4ccc(O)cc4O)c4c(=O)[nH]c(SCc5ccccc5)nc4n3)cc2)n1` returned an IC50 of 5500 nM. The IC50 values of the last two compounds are within 1.5-fold of each other.

`Cc1ccnc(NS(=O)(=O)c2ccc(Nc3nc(C)c4c(=O)[nH]c(Nc5cccc(Cl)c5)nc4n3)cc2)n1` gave an IC50 of over 10000 nM.

A further assay has as its target MAPK14 (UniProt Q16539). Put plainly: MAPK14 Kinase Inhibition.
Settings: not given
In the case of `CSc1nccc(-c2cccnc2-c2ccc(F)cc2)n1`, the 50% inhibitory concentration (IC50) is under 50000 nM.

As for `Nc1nccc(-c2cccnc2-c2ccc(F)cc2)n1`, the IC50 was under 50000 nM.

In turn, `Fc1ccc(-c2ncccc2-c2ccnc(Oc3ccccc3)n2)cc1` showed an IC50 of under 50000 nM.

In turn, `Cc1ccccc1Nc1nccc(-c2cccnc2-c2ccc(F)cc2)n1` showed an IC50 of under 50000 nM.

As to `COc1nccc(-c2cccnc2-c2ccc(F)cc2)n1`, the IC50 was under 50000 nM.
